# Laboratory results from patent publication US3931143A, “Unsymmetrical aliphatic monoazo compounds” (priority 1971, dated 1976).
# Where two headings read alike, the source gives them in different places.
# Key:
# [1] = for temperature of 10 hour half-life: in trichlorobenzene; for t1/2: trichlorobenzene; for 10 hr. t1/2 temp.: Table II, solvent not given
# [2] = Thermal decomposition half-life in water; assay type: physicochemical
# [3] = Preliminary toxicological studies compared with AIBN
# From the text: In general, the new compositions of the present invention eliminate these problems. The tertiary-(alkyl, cycloalkyl, bicycloalkyl or aralkyl) group on the one side of the azo function lowers the melting point of these compounds so that most of them are liquids or low melting solids which can be handled in the melted state. In addition, this tertiary group increases the solubility of these azos so that most of them are completely miscible with the common organic solvents including petroleum hydrocarbons. Thus, no dusting, metering, incorporating, mixing, and dispersing problems are encountered in using these new compositions. […] The less toxic nature of the new compositions coupled with their liquid and high solubility properties allows them to be used in many applications where AIBN cannot be used.
# [4] = Thermal decomposition half-life in odorless mineral spirits; assay type: physicochemical
# rat = details: in rat; decomposition residue of AIBN; cited from earlier work
# [5] = Stability in unsaturated polyester-styrene resin at room temperature; assay type: physicochemical; details: unsaturated polyester-styrene resin of Example III
# Procedure: An unsaturated polyester resin was made by reacting maleic anhydride (1.0 mole), phthalic anhydride (1.0 mole), and propylene glycol (2.2 moles) until an acid number of 45-50 was obtained. To this was added hydroquinone at a 0.013% concentration. Seven parts of this unsaturated polyester was diluted with 3 parts of monomeric styrene to obtain a homogeneous blend having a viscosity of 13.08 poise and a specific gravity of 1.14.
# [6] = Solubility in petroleum / hydrocarbon / common organic solvents; details: even at temperatures as low as -20°C
SMILES,temperature of 10 hour half-life [1],further results
"CC(C)(C)N=NC(C)(C#N)CCC(=O)O (stereo not drawn) [Example X, 4-t-Butylazo-4-cyanovaleric Acid]",76 °C,temperature of 10 hour half-life [2]: 73 °C
"CC(C)CC(C)(C#N)N=NC(C)(C)c1ccccc1 (stereo not drawn) [Example LVII, 2-t-Cumylazo-2-cyano-4-methylpentane]",approximately 33 °C,–
CC(C)(C)N=NC(C)(C#N)COC(=O)c1ccccc1 (stereo not drawn) [2-t-Butylazo-2-cyano-1-benzoyloxypropane],approximately 77 °C,–
"CC(C)(C)N=NC1(C#N)CCCCC1 [Example V, 1-t-Butylazo-1-cyanocyclohexane]",96 °C,t1/2 ([1]; 96.3 °C): 10.0 h; t1/2 ([1]; 100 °C): 6.7 h; t1/2 ([1]; 110 °C): 2.3 h; t1/2 ([1]; 120 °C): 0.75 h
"CC1(N=NC2(C#N)CCCCC2)CCCCC1 [LXII, 1-t-(Methylcyclohexyl)azo-1-cyanocyclohexane]",approximately 100 °C,–
"CC(C)(C#N)N=NC(C)(C)c1ccccc1 [Example XII, 2-t-Cumylazo-2-cyanopropane]",50 °C,–
"CC(C)(C)CC(C)(C#N)N=NC(C)(C)C (stereo not drawn) [XLI, 2-t-butylazo-2-cyano-4,4-dimethylpentane]",–,10 hr. t1/2 temp. [1]: 52 °C
"CC(C)CC(C#N)(CC(C)C)N=NC(C)(C)C [Example VII, 4-t-Butylazo-4-cyano-2,6-dimethylheptane]",61 °C,–
"CC(C)(C)N=NC1(C#N)CCCCCC1 [Example 1-t-Butylazo-1-cyanocycloheptane, 1-t-Butylazo-1-cyanocycloheptane]",approximately 68 °C,–
CC(C)(C)N=NC(C)(C#N)C1CC1 (stereo not drawn) [1-t-Butylazo-1-cyano-1-cyclopropylethane],62 °C,–
"CC(C)(C)N=NC(C)(C)C(N)=O [Example LXIV, 2-t-Butylazo-2-carbamylpropane]",110 °C,–
"CC(C)(C)N=NC1(C(N)=O)CCCCC1 [LXIII, 1-t-Butylazo-1-carbamylcyclohexane]",111 °C,–
CC(C)(C)N=NC(C)(C)C(N)=NO [2-t-Butylazo-2-methylpropionamidoxime],approximately 90 °C,–
"CC(C)(C)N=NC(C)(C)C#N [Example I, 2-t-Butylazo-2-cyanopropane]",79 °C,t1/2 ([1]; 70 °C): 40.5 h; t1/2 ([1]; 78.8 °C): 10.0 h; t1/2 ([1]; 90 °C): 2.0 h; t1/2 ([1]; 100 °C): 0.54 h; t1/2 ([1]; 110 °C): 0.20 h; toxicity compared with AIBN [3]: significantly less toxic than AIBN; temperature of 10 hour half-life [4]: 86 °C
CC(C)CCC(C)(C#N)N=NC(C)(C)C (stereo not drawn) [2-t-Butylazo-2-cyano-5-methylhexane],approximately 78 °C,–
"CC(C)(C#N)C(C)(C)C#N [2,2,3,3-tetramethylsuccinonitrile]",–,LD50 (rat): 30 mg/kg
"CC(C)(N=NC1(C#N)CCCCC1)c1ccccc1 [Example LVI, 1-t-Cumylazo-1-cyanocyclohexane]",approximately 62.5 °C,–
"COC(C)(C)CC(C)(C#N)N=NC(C)(C)C (stereo not drawn) [Example XXXIV, 2-t-Butylazo-2-cyano-4-methoxy-4-methylpentane]",approximately 55 °C,–
"CC(C)CC(C)(C#N)N=NC(C)(C)C (stereo not drawn) [Example XXXII, 2-t-Butylazo-2-cyano-4-methylpentane]",approximately 70 °C,period stable in the resin [5]: exceeding 1 month
"CC(C)(C)N=NC1(C#N)CCCCCCC1 [Example 1-t-Butylazo-1-cyanocyclooctane, 1-t-Butylazo-1-cyanocyclooctane]",approximately 55 °C,–
"CC(C)(C)N=NC(C)(C#N)c1ccccc1 (stereo not drawn) [XLII, 1-t-butylazo-1-cyano-1-phenylethane]",–,10 hr. t1/2 temp. [1]: ~ 30 °C
"CC(C)(C)N=NC1(C#N)C(C)(C)C(=O)C1(C)C [XLIII, 3-t-butylazo-3-cyano-2,2,4,4-tetramethylcyclobutanone]",–,10 hr. t1/2 temp. [1]: 115 °C
"CCCCCCC(C)(C#N)N=NC(C)(C)C (stereo not drawn) [LI, 2-t-butylazo-2-cyanooctane]",–,10 hr. t1/2 temp. [1]: 79 °C
"CCC(C)(C)N=NC(C)(C)C#N [XIV, 2-t-Amylazo-2-cyanopropane]",79 °C,–
"CC(C)(C)N=NC(C)(C#N)C(C)(C)C (stereo not drawn) [IX, 2-t-Butylazo-2-cyano-3,3-dimethylbutane]",80 °C,–
"CCC(C)(C)N=NC1(C#N)CCCCC1 [XV, 1-t-Amylazo-1-cyanocyclohexane]",approximately 94 °C,–
"CC1CC(C)(C)CC(C#N)(N=NC(C)(C)C)C1 (stereo not drawn) [Example VIII, 1-t-Butylazo-1-cyano-3,3,5-trimethylcyclohexane]",78 °C,–
"CCC(C)(C#N)N=NC(C)(C)C (stereo not drawn) [Example VI, 2-t-Butylazo-2-cyanobutane]",around 80 °C,solubility in hydrocarbon solvents [6]: very soluble; temperature of 10 hour half-life [4]: around 82 °C
CC(C)(C)N=NC(C)(C#N)COC(=O)C(C)(C)C (stereo not drawn) [2-t-Butylazo-2-cyano-1-pivaloyloxypropane],approximately 75 °C,–
CC(C)C(=O)OCC(C)(C#N)N=NC(C)(C)C (stereo not drawn) [2-t-Butylazo-2-cyano-1-isobutyroyloxypropane],approximately 79 °C,–
